Measured values as given in article PMC11444265 (European journal of medicinal chemistry, 2021).
≈ marks a conversion by molar mass, not a printed value. Where “and” joins values, the source holds several entries; their conditions need not be identical. Equal entries are not always repeated. Entries after “also recorded” stand apart in the source; their conditions may differ. Peptide text beside a SMILES is read from it. * marks the point of attachment. βNA = c1ccc2cc(N*)ccc2c1

Legend:
Caco-2 = Caco-2 permeability; type: in vitro ADME
[1] = system: P. aeruginosa AR-BANK#0229; assay: Neutropenic mouse thigh infection model; type: in vivo; conditions: 50 and 100 mg/kg SC q6h, neutropenic mice
Acinetobacter spp. = assay: MIC in low iron media, 198-member panel of Acinetobacter spp. clinical isolates; type: cell-based
[2] = system: carbapenem-resistant A. baumannii (CRAB); assay: MIC in low iron media, 98-member carbapenem-resistant A. baumannii; type: cell-based
[3] = system: Acinetobacter spp. isolates resistant to 2; assay: MIC of 2 in combination with efflux pump inhibitors; type: cell-based; conditions: for direct effect of efflux pump inhibitor on growth: 2 μg/mL for CCCP and 32 μg/mL for PAβN
P. aeruginosa = type: cell-based, Pseudomonas aeruginosa; conditions: for susceptibility of strain: strain AR-BANK#0229
K. pneumoniae = type: cell-based; conditions: Klebsiella pneumoniae
[4] = Plasma protein binding, mouse; type: in vitro ADME
[5] = system: MDR strains of K. pneumoniae, Acinetobacter spp., and P. aeruginosa; assay: MIC50 summary against MDR strains; type: cell-based
[6] = system: human primary hepatocytes; assay: Cytotoxicity in human primary hepatocytes; type: cell-based; conditions: maximal dose of 100 μM
[7] = system: 6 ion channels, including hERG; assay: Ion channel panel; conditions: 30 μM maximal dose
[8] = Plasma protein binding, human; type: in vitro ADME
8 CYP enzymes = assay: CYP inhibition panel; type: in vitro ADME; conditions: 7 of the 8 CYP enzymes tested, 30 μM
[9] = Pharmacokinetics in CD-1 mice, 50 mg/kg sc or iv; type: in vivo; conditions: for Sample Conc (individual mouse plasma): sc 50 mg/kg
[10] = mice; cited from earlier work

## CC(C)(O/N=C(\C(=O)N[C@H]1CN2CC(C(=O)NCCN3C(=O)c4cc(O)c(O)cc4C3=O)=C(C(=O)O)N2C1=O)c1nc(N)sc1Cl)C(=O)O [Compound 2, (S,Z)-6-(2-(2-amino-5-chlorothiazol-4-yl)-2-(((2-carboxypropan-2-yl)oxy)imino)acetamido)-2-((2-(5,6-dihydroxy-1,3-dioxoisoindolin-2-yl)ethyl)carbamoyl)-5-oxo-6,7-dihydro-1H,5H-pyrazolo[1,2-a]pyrazole-3-carboxylic acid]
Caco-2
  Caco-2 permeability: poor Caco-2 permeability
[1]
  efficacy (thigh bacterial burden, CFU): dose-dependent efficacy; also recorded: dose-dependent reduction in CFU values
Acinetobacter spp.; 24 of 198 tested strains
  fraction of strains with MICs >=16 μg/mL: 12%
Acinetobacter spp.; Acinetobacter
  MIC90: > 16 µg/mL
Acinetobacter spp.; full 198 member panel, 2 with 20 μg/mL coadministration of sulbactam
  share of panel that could be susceptible: 98%
[2]; 98 CRAB subset, cefiderocol breakpoint <=4 μg/mL applied, 81 out of 98
  susceptibility of panel (isolates susceptible): 83%
[2]; carbapenem-resistant subgroup, 15 of 98
  fraction of strains with MICs >=16 μg/mL: 15%
[3]; combined with CCCP 2 μg/mL or PAβN 32 μg/mL
  effect of efflux pump inhibitors on MIC of 2: no consistent effect on MIC values
[3]; isolate PR-452, CCCP 2 μg/mL
  effect of combination with CCCP: Potential synergistic effects
P. aeruginosa; Pseudomonas aeruginosa
  MIC50: 500 µg/mL (≈ 693 µM)
K. pneumoniae
  MIC50: 1000 µg/mL (≈ 1390 µM)
[4]
  protein-bound: 94%
[5]
  MIC50: ≤ 0.5 µg/mL
[6]
  cytotoxicity: not found
[7]
  ion channel inhibition: did not inhibit these channels
[8]
  protein-bound: 88%
8 CYP enzymes
  CYP inhibition: does not inhibit
[9]; CD-1 mice, by both dosing routes (sc and iv)
  plasma level at the 6h time point: > 1000 µg/mL
[9]; 0.167 h
  Sample Conc (individual mouse plasma): 48689 ng/mL and 44921 ng/mL
[9]; 0.5 h
  Sample Conc (individual mouse plasma): 14355 ng/mL and 14094 ng/mL
[9]; 1 h
  Sample Conc (individual mouse plasma): 3515 ng/mL and 3186 ng/mL
[9]; 2 h
  Sample Conc (individual mouse plasma): 2876 ng/mL
[9]; 4 h
  Sample Conc (individual mouse plasma): 1534 ng/mL and 739 ng/mL
[9]; 6 h
  Sample Conc (individual mouse plasma): 1102 ng/mL and 1425 ng/mL
[9]; 8 h
  Sample Conc (individual mouse plasma): 1473 ng/mL and 1126 ng/mL
[9]; 24 h
  Sample Conc (individual mouse plasma): 545 ng/mL and 579 ng/mL

## colistin
P. aeruginosa
  susceptibility of strain: susceptible

## N#CC(C#N)=NNc1cccc(Cl)c1 [CCCP, carbonyl cyanide 3-chlorophenylhydrazone, reference compound]
[3]
  direct effect of efflux pump inhibitor on growth: No significant inhibition effect on growth

## CC(C)(O/N=C(\C(=O)N[C@H]1CN2CC(C(=O)NCCN3C(=O)c4cc(O)c(O)cc4C3=O)=C(C(=O)O)N2C1=O)c1csc(N)n1)C(=O)O [Compound 1]
[1]
  efficacy (thigh bacterial burden, CFU): not found to have efficacy
[10]
  plasma concentration at the 6-hour timepoint: about 0.35 mg/mL

## C[C@H]1[C@H](NC(=O)/C(=N\OC(C)(C)C(=O)O)c2csc(N)n2)C(=O)N1S(=O)(=O)O [Aztreonam (3), aztreonam]
Acinetobacter spp.; Acinetobacter
  MIC50: > 32 µg/mL
  MIC90: > 32 µg/mL

## C[C@@H](O)[C@H]1C(=O)N2C(C(=O)O)=C(S[C@@H]3CN[C@H](C(=O)N(C)C)C3)[C@H](C)[C@H]12 [Meropenem (5), meropenem, reference compound]
Acinetobacter spp.; Acinetobacter
  MIC90: > 64 µg/mL
[2]; Acinetobacter baumannii
  MIC90: > 64 µg/mL
[5]
  MIC50: > 8 µg/mL

## CC(C)(O/N=C(\C(=O)N[C@@H]1C(=O)N2C(C(=O)[O-])=C(C[n+]3ccccc3)CS[C@H]12)c1csc(N)n1)C(=O)O [Ceftazidime (4), ceftazidime]
Acinetobacter spp.; Acinetobacter
  MIC90: > 64 µg/mL

## CC1(C)[C@H](C(=O)O)N2C(=O)C[C@H]2S1(=O)=O [Compound 10, sulbactam]
Acinetobacter spp.; 24 isolates with MIC of 2 >=16 μg/mL, 19/24
  isolates with MICs <=16 μg/mL: 79%

## NC(N)=NCCC[C@H](NC(=O)[C@@H](N)Cc1ccccc1)C(=O)Nc1ccc2ccccc2c1 [PaβN, phenylalanine-arginine β-naphthylamide, reference compound] (H-Phe-Arg-βNA)
[3]
  direct effect of efflux pump inhibitor on growth: No significant inhibition effect on growth

## CNC(C)C1CCC(N)C(OC2C(N)CC(N)C(OC3OCC(C)(O)C(NC)C3O)C2O)O1 (stereo not shown) [gentamicin]
P. aeruginosa
  susceptibility of strain: susceptible

## NCC[C@H](O)C(=O)N[C@@H]1C[C@H](N)[C@@H](O[C@H]2O[C@H](CN)[C@@H](O)[C@H](O)[C@H]2O)[C@H](O)[C@H]1O[C@H]1O[C@H](CO)[C@@H](O)[C@H](N)[C@H]1O [amikacin]
P. aeruginosa
  susceptibility of strain: susceptible
